US20060263355A1, “Treatment of bone disorders” (priority 2005, published 2006)

How the values were obtained:
[1] = cited from earlier work; for effect in rat adjuvant / experimental arthritis: in vivo
[2] = Periodontal disease model (Example 5); assay type: in vivo; conditions: applied to the periodontal pocket
Procedure: Rituximab may be used to regenerate bone and ligament lost to periodontal disease. In this model teeth showing 20% to 80% reduction of surrounding jaw bone are scaled, then a full-thickness gingival flap is made by an incision to expose the jaw bone and tooth root. The root is planed to remove bacterial plaque and calculus. Rituximab is applied to the periodontal pocket in a 2.5% HPMC gel at a dose of […] per tooth, or alternatively a solution of rituximab in 100 mM sodium acetate buffer, pH 6.0 is added to powdered bone to provide a dosage of […] rituximab per tooth. The material is thoroughly mixed and applied to the exposed periodontal pocket. In both cases, the gingival flap is then closed and held in place by suturing.

[3] = Bone remodeling in animals (Example 2); conditions: rats, subcutaneously once per day for 35 days
[4] = system: TRAP-positive osteoclasts; experiment: TRAP assay, osteoclasts formed in vitro (Example 4)
Procedure: TRAP refers to tartrate-resistant acid phosphatase that identifies osteoclast-like cells.
In this test, naphthol AS-MX phosphate 5 mg (Sigma, St. Louis, Mo.) is resolved in 0.5 ml of N,N-dimethylformamide (Wako). Thirty milligrams of fast red violet LB salt (Sigma) and 50 ml of 0.1 M sodium acetate buffer (pH 5.0) containing 50 mM sodium tartrate are added to the mixture (the TRAP-staining solution). Cells are fixed with 3.7% (v/v) formaldehyde in Ca^2− and Mg^2+-free phosphate-buffered saline for 10 min, fixed again with ethanol-acetone (50:50, v:v) for 1 min, and incubated with the TRAP-staining solution for 10 min. at room temperature. TRAP-positive osteoclasts appear as red cells. The incubation period should not exceed 10 min. since cells other than osteoclasts become weakly positive with time. After staining, cells are washed with distilled water, and TRAP-positive multinucleated cells having three or more nuclei are counted as osteoclasts under a microscope (Nicholson et al., J. Clin. Invest. 78: 355 (1986)).

[5] = system: serological markers of inflammation and bone turnover; experiment: Serum biochemical markers in RA patients, Phase IIa study of rituximab; assay type: in vivo, human; conditions: RA patients treated with rituximab
B cells = conditions: cynomolgus monkey; cited from earlier work
[6] = pH 5; cited from earlier work
[7] = in vivo; cited from earlier work
[8] = in vivo; cited from earlier work; remark: listed apart in the source
lymphoid B-cell lines = conditions: cited from earlier work
[9] = system: serological markers of inflammation and bone turnover; experiment: Serum biochemical markers in RA patients, Phase IIa study of rituximab; assay type: in vivo, human; conditions: week 24 vs baseline, n = 40
Procedure: Serum samples were analyzed from RA+ patients who received either methotrexate (MTX) alone or MTX in combination with a single course of rituximab as part of a Phase IIa study of rituximab in RA to be reported elsewhere. The following markers were measured at baseline and Week 24: anti-CCP, CRP, S100, SAA, PINP and Osteocalcin (OC).
Biomarker data were analyzed using a non-parametric approach by comparing the percentage changes at 24-weeks from baseline in MTX group with the RTX+MTX group. The median percent change from baseline was plotted using the following formula: Pcfb1(marker)=((slope—lr*study time at last visit)/intercept—lr)*100
where slope_lr=slope of linear regression for each patient • intercept_lr=intercept of linear regression for each patient.

[10] = ACR50 clinical response in RA, Phase IIa study of rituximab; assay type: in vivo, human; conditions: two infusions of rituximab two weeks apart with ongoing MTX, versus MTX alone

CC(O)(P(=O)(O)O)P(=O)(O)O [etridronate]
effect in rat adjuvant / experimental arthritis [1]: decrease weight loss, pedal inflammation, and bone resorption

O=P(O)(O)C(O)(Cn1ccnc1)P(=O)(O)O [Zoledronate]
effect in rat adjuvant / experimental arthritis [1]: protects against meta hyseal intracortical defets

O=P(O)(O)C(O)(Cc1cccnc1)P(=O)(O)O [NE58095]
effect in rat adjuvant / experimental arthritis [1]: prevents bone erosion and preserves joint architecture

humanized 2H7: humanized CD20 antibody, or antigen-binding fragment, comprising at least CDR H3 of SEQ ID NO:12 and human VHIII framework
regeneration of surrounding jaw bone versus placebo [2]: at least partially regenerated
bone remodeling versus controls [3]: effective in enhancing bone remodeling over the controls
performance as positive control in TRAP assay [4]: effective as a positive control

rituximab
regeneration of surrounding jaw bone versus placebo [2]: at least partially regenerated
Total immunoglobulin levels [5]: not affected significantly
B-cell depletion in vivo (B cells): depletes B cells from the peripheral blood, lymph nodes, and bone marrow
minimum shelf life [6]: two
patients experiencing at least one adverse event during their first infusion [7]: 36%
patients admitted to the hospital for overnight observation after moderate fever and rigors following the first infusion [8]: 1 of 10
complement-dependent cytotoxicity (CDC) (lymphoid B-cell lines): lyses lymphoid B-cell lines
bone remodeling versus controls [3]: effective in enhancing bone remodeling over the controls
performance as positive control in TRAP assay [4]: effective as a positive control

Rituximab + MTX: MTX in combination with a single course of rituximab
Anti-CCP (anti-citrullinated peptide antibody), median % change from baseline at 24 weeks [9]: −45.78%
CRP (C-reactive protein), median % change from baseline at 24 weeks [9]: −59.07%
OC (osteocalcin), median % change from baseline at 24 weeks [9]: 28.76%
P-1NP (procollagen type 1 N-terminal propeptide), median % change from baseline at 24 weeks [9]: 13.64%
S100 (S100 A8/9), median % change from baseline at 24 weeks [9]: −52.73%
SAA (serum amyloid A), median % change from baseline at 24 weeks [9]: −77.02%
ACR50 response at 24 weeks [10]: significantly higher clinical responses

CN(Cc1cnc2nc(N)nc(N)c2n1)c1ccc(C(=O)N[C@@H](CCC(=O)O)C(=O)O)cc1 [MTX, methotrexate]
Anti-CCP (anti-citrullinated peptide antibody), median % change from baseline at 24 weeks [9]: −21.03%
CRP (C-reactive protein), median % change from baseline at 24 weeks [9]: −22.21%
OC (osteocalcin), median % change from baseline at 24 weeks [9]: 1.94%
P-1NP (procollagen type 1 N-terminal propeptide), median % change from baseline at 24 weeks [9]: −11.78%
S100 (S100 A8/9), median % change from baseline at 24 weeks [9]: −14.31%
SAA (serum amyloid A), median % change from baseline at 24 weeks [9]: −10.55%

O=P(O)(O)C(Cl)(Cl)P(=O)(O)O [clodronate]
effect in arthritis study at 20 mg/kg/day iv infusion ([1]; 20 mg/kg/day iv infusion): decreases pedal inflammation and bone resorption, but also inhibits bone formation
effect in rat adjuvant / experimental arthritis [1]: decrease weight loss, pedal inflammation, and bone resorption
